From patent US20220127247A1, “N-(PYRIDIN-2-YL)PYRIDINE-SULFONAMIDE DERIVATIVES AND THEIR USE IN THE TREATMENT OF DISEASE” (NOVARTIS AG, priority 2019, published 2022)

Biological target: T1, delF508-CFTR (Homo sapiens, UniProt P13569, DEL508-508)
T1 construct: expressed in transfected cells
Experiment: Measurement of delF508-CFTR-HRP surface expression in CFBE41o- cells
Type: cell-based
Conditions: for EC50: HRP-tagged delF508-CFTR in CFBE41o- cells, 24 h with compound, luminescence, 10-point curve, top 10 μM; for Emax: efficacy relative to reference compound 3-(6-(1-(2,2-difluorobenzo[d][1,3]dioxol-5-yl)cyclopropane-1-carboxamido)-3-methylpyridin-2-yl)benzoic acid, CFBE41o- cells, 24 h, read-out: DelF508-CFTR-HRP Amax %
Source text: Measurement of delF508-CFTR-HRP Surface Expression in CFBE41o-Cells
This assay quantifies the cell surface expressions of the mutant CFTR channel using an extracellular HRP tag.
A cellular assay was developed to measure surface expression of horseradish peroxidase (HRP) tagged delF508-CFTR in the human bronchial epithelial immortalized CFBE41o-cell line (Phuan, P. W., et al, (2014) Molecular Pharmacology 86:42-51). Specifically, the HRP sequence was inserted into the fourth extracellular loop of delF508-CFTR and stably expressed in CFBE41o-cells. Cells were seeded in 384 well plate at a density of 5000 cells/well and incubated at 37° C. for 12 to 24 hours in medium (Gibco MEM #11095, 10% FBS, 10 mM HEPES, […], 200 μg/mL G418, 3 μg/mL Puromycin). The delF508-CFTR-HRP expression was induced with 500 ng/mL doxycycline (Sigma D-9891, dissolved in H2O and sterile filtered) in medium and the cells were incubated at 37° C. for 48 h. Old medium was removed and fresh medium was added containing 500 ng/mL doxycycline and unknown test compound at required test concentration in DMSO, not exceeding 0.5% final DMSO concentration. The highest concentration tested was 10 μM with a 10-point concentration response curve using a 3-fold dilution. After addition of compounds, the cells were incubated for 24 h at 37° C. On the final day, cells were washed four times in PBS containing 1 mM MgCl2 and 0.1 mM CaCl2. HRP-Substrate (SuperSignal ELISA Pico, Fisher #37069) 20 μl/well was added and the luminescence signal was determined (Viewlux, Perkin Elmer). Light was emitted upon addition of exogenous HRP-Substrate only when delF508-CFTR-HRP reached the cell surface and the HRP tag was accessible to the HRP-Substrate (note: HRP-Substrate cannot cross the lipid bilayer to reach delF508-CFTR-HRP misfolded within the cell).
The median activity for the lowest concentration of the compounds on each assay plate was calculated and this value was used to normalize the signal for each well on the respective plate. Three replicates at each concentrations for every compound were run to determine one EC50. The median value was determined and used to calculate compound activities as described below. Effective half maximal values (EC50) were calculated for each compound by performing logistic regression on measured dose-response data points using the equation: […]
where “Y” is the observed activity, “Bottom” is the lowest observed value, “Top” is the highest observed value, and the “Hill coefficient” gives the largest absolute value of the slope. The curve fitting is carried out by a curve fitting program implemented at GNF using Matlab (Mathworks).
The dose response curves also were used to calculate Fold Change (FC) using the equation: […]
Compound efficacy relative to the reference compound 3-(6-(1-(2,2-difluorobenzo[d][1,3]dioxol-5-yl)cyclopropane-1-carboxamido)-3-methylpyridin-2-yl)benzoic acid was determined using the following formula: […]

T1 sequence (P13569 with tags, fused parts or gaps DEL508-508): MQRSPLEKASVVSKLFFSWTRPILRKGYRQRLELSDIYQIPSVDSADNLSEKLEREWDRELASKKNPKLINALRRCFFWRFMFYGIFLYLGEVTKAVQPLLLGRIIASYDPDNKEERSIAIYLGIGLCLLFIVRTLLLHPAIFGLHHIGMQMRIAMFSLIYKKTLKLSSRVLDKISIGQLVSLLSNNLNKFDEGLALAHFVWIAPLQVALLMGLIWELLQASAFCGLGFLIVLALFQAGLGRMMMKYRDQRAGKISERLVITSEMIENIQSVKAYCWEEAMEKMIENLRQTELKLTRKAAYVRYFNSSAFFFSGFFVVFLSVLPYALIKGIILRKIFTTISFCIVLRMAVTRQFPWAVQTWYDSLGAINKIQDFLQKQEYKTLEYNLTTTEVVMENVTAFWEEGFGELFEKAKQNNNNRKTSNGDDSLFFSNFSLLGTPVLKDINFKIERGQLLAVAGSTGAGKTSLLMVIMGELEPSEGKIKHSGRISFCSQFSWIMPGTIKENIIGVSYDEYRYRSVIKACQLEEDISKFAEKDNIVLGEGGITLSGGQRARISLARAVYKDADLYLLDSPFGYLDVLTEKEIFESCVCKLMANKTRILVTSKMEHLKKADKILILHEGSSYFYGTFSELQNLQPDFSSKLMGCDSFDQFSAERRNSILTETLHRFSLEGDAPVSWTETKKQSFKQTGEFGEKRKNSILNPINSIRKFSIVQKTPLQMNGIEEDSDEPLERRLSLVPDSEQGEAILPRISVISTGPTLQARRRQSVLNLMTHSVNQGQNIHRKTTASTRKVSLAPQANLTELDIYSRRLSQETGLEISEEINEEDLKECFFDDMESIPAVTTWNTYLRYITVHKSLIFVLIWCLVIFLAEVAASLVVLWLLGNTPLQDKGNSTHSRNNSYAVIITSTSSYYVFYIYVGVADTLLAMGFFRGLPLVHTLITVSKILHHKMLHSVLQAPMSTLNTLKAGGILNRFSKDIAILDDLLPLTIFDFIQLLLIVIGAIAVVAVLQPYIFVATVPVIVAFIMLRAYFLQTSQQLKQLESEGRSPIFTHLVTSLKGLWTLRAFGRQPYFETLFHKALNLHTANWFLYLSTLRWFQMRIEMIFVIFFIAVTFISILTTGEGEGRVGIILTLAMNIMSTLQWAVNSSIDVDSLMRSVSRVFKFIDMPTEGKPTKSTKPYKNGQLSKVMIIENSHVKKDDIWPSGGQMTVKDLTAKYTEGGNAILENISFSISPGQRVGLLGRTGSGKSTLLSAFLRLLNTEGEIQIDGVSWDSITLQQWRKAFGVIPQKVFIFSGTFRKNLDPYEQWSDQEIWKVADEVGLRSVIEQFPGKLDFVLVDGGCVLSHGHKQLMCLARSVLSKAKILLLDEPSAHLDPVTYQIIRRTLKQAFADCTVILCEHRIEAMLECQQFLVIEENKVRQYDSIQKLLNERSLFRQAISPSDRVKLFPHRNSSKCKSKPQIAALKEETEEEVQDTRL

EC50 [nM] | Emax [%] | Structure (SMILES)
2530 | 314 | O=C(O)CCCNc1cccc(S(=O)(=O)Nc2ccc(C(F)(F)F)c(-c3ccccc3C3CC3)n2)n1 [Compound 40, 4-((6-(N-(6-(2-cyclopropylphenyl)-5-(trifluoromethyl)pyridin-2-yl)sulfamoyl)pyridin-2-yl)amino)butanoic Acid]
1480 |  | CN(CCCC(=O)O)c1cccc(S(=O)(=O)Nc2ccc(C(F)(F)F)c(-c3ccccc3C3CC3)n2)n1 [Compound 41, 4-((6-(N-(6-(2-cyclopropylphenyl)-5-(trifluoromethyl)pyridin-2-yl)sulfamoyl)pyridin-2-yl)(methyl)amino)butanoic Acid]
2670 | 507 | O=C(O)CCCCNc1cccc(S(=O)(=O)Nc2ccc(C(F)(F)F)c(-c3ccccc3C3CC3)n2)n1 [Compound 42, 5-((6-(N-(6-(2-cyclopropylphenyl)-5-(trifluoromethyl)pyridin-2-yl)sulfamoyl)pyridin-2-yl)amino)pentanoic Acid]
2370 | 407 | Cc1ccccc1-c1nc(NS(=O)(=O)c2cccc(NCCCCC(=O)O)n2)ccc1C(F)(F)F [Compound 43, 5-((6-(N-(6-(o-tolyl)-5-(trifluoromethyl)pyridin-2-yl)sulfamoyl)pyridin-2-yl)amino)pentanoic Acid]
1520 |  | CC(C)c1ccccc1-c1nc(NS(=O)(=O)c2cccc(N(C)CCC(=O)O)n2)ccc1C(F)(F)F [Compound 44, 3-((6-(N-(6-(2-isopropylphenyl)-5-(trifluoromethyl)pyridin-2-yl)sulfamoyl)pyridin-2-yl)(methyl)amino)propanoic Acid]
1570 | 598 | Cc1ccc(F)cc1-c1nc(NS(=O)(=O)c2cccc(N(C)CC(C)(C)C(=O)O)n2)ccc1C(F)(F)F [Compound 45, 3-((6-(N-(6-(5-fluoro-2-methylphenyl)-5-(trifluoromethyl)pyridin-2-yl)sulfamoyl)pyridin-2-yl)(methyl)amino)-2,2-dimethylpropanoic Acid]
1810 | 493 | Cc1ccccc1-c1nc(NS(=O)(=O)c2cccc(N(C)CC(C)(C)C(=O)O)n2)ccc1C(F)(F)F [Compound 46, 2,2-dimethyl-3-(methyl(6-(N-(6-(o-tolyl)-5-(trifluoromethyl)pyridin-2-yl)sulfamoyl)pyridin-2-yl)amino)propanoic Acid]
1820 | 496 | Cc1c(F)cccc1-c1nc(NS(=O)(=O)c2cccc(N(C)CC(C)(C)C(=O)O)n2)ccc1C(F)(F)F [Compound 47, 3-((6-(N-(6-(3-fluoro-2-methylphenyl)-5-(trifluoromethyl)pyridin-2-yl)sulfamoyl)pyridin-2-yl)(methyl)amino)-2,2-dimethylpropanoic Acid]
2040 | 513 | Cc1ccc(F)cc1-c1nc(NS(=O)(=O)c2cccc(N(C)CCC(=O)O)n2)ccc1C(F)(F)F [Compound 48, 3-((6-(N-(6-(5-fluoro-2-methylphenyl)-5-(trifluoromethyl)pyridin-2-yl)sulfamoyl)pyridin-2-yl)(methyl)amino)propanoic Acid]
2030 | 557 | Cc1c(F)cccc1-c1nc(NS(=O)(=O)c2cccc(N(C)CCC(=O)O)n2)ccc1C(F)(F)F [Compound 49, 3-((6-(N-(6-(3-fluoro-2-methylphenyl)-5-(trifluoromethyl)pyridin-2-yl)sulfamoyl)pyridin-2-yl)(methyl)amino)propanoic Acid]
2100 | 867 | Cc1c(F)cccc1-c1nc(NS(=O)(=O)c2cccc(N3CCCC(C)(CC(=O)O)C3)n2)ccc1C(F)(F)F (stereo not shown) [Compound 50, 2-(1-(6-(N-(6-(3-fluoro-2-methylphenyl)-5-(trifluoromethyl)pyridin-2-yl)sulfamoyl)pyridin-2-yl)-3-methylpiperidin-3-yl)acetic Acid]
1600 |  | Cc1ccccc1-c1nc(NS(=O)(=O)c2cccc(N3CCCC(C)(CC(=O)O)C3)n2)ccc1C(F)(F)F (stereo not shown) [Compound 51, 2-(3-methyl-1-(6-(N-(6-(o-tolyl)-5-(trifluoromethyl)pyridin-2-yl)sulfamoyl)pyridin-2-yl)piperidin-3-yl)acetic Acid]
1490 |  | Cc1ccc(F)cc1-c1nc(NS(=O)(=O)c2cccc(N3CCCC(C)(CC(=O)O)C3)n2)ccc1C(F)(F)F (stereo not shown) [Compound 52, 2-(1-(6-(N-(6-(5-fluoro-2-methylphenyl)-5-(trifluoromethyl)pyridin-2-yl)sulfamoyl)pyridin-2-yl)-3-methylpiperidin-3-yl)acetic Acid]
1780 | 411 | Cc1ccccc1-c1nc(NS(=O)(=O)c2cccc(N3CCC(C)(CC(=O)O)C3)n2)ccc1C(F)(F)F (stereo not shown) [Compound 53, 2-(3-methyl-1-(6-(N-(6-(o-tolyl)-5-(trifluoromethyl)pyridin-2-yl)sulfamoyl)pyridin-2-yl)pyrrolidin-3-yl)acetic Acid]
2000 | 369 | Cc1c(F)cccc1-c1nc(NS(=O)(=O)c2cccc(N3CCC(C)(CC(=O)O)C3)n2)ccc1C(F)(F)F (stereo not shown) [Compound 54, 2-(1-(6-(N-(6-(3-fluoro-2-methylphenyl)-5-(trifluoromethyl)pyridin-2-yl)sulfamoyl)pyridin-2-yl)-3-methylpyrrolidin-3-yl)acetic Acid]
1680 | 457 | Cc1ccc(F)cc1-c1nc(NS(=O)(=O)c2cccc(N3CCC(C)(CC(=O)O)C3)n2)ccc1C(F)(F)F (stereo not shown) [Compound 55, 2-(1-(6-(N-(6-(5-fluoro-2-methylphenyl)-5-(trifluoromethyl)pyridin-2-yl)sulfamoyl)pyridin-2-yl)-3-methylpyrrolidin-3-yl)acetic Acid]
1970 |  | C=Cc1ccccc1-c1nc(NS(=O)(=O)c2cccc(N3CCC[C@H](CC(=O)O)C3)n2)ccc1C(F)(F)F [Compound 57, (R)-2-(1-(6-(N-(5-(trifluoromethyl)-6-(2-vinylphenyl)pyridin-2-yl)sulfamoyl)pyridin-2-yl)piperidin-3-yl)acetic Acid]
2370 |  | C=Cc1ccccc1-c1nc(NS(=O)(=O)c2cccc(N3CCC[C@@H](CC(=O)O)C3)n2)ccc1C(F)(F)F [Compound 58, (S)-2-(1-(6-(N-(5-(trifluoromethyl)-6-(2-vinylphenyl)pyridin-2-yl)sulfamoyl)pyridin-2-yl)piperidin-3-yl)acetic Acid]
2070 | 920 | Cc1ccccc1-c1nc(NS(=O)(=O)c2cccc(N3CCC[C@H](CC(=O)O)C3)n2)ccc1C(F)(F)F [Compound 59, (R)-2-(1-(6-(N-(6-(o-tolyl)-5-(trifluoromethyl)pyridin-2-yl)sulfamoyl)pyridin-2-yl)piperidin-3-yl)acetic Acid]
3560 | 736 | CCN(CCC(=O)O)c1cccc(S(=O)(=O)Nc2ccc(C(F)(F)F)c(-c3cc(F)ccc3C)n2)n1 [Compound 61, 3-(ethyl(6-(N-(6-(5-fluoro-2-methylphenyl)-5-(trifluoromethyl)pyridin-2-yl)sulfamoyl)pyridin-2-yl)amino)propanoic Acid]
1760 |  | Cc1ccc(F)cc1-c1nc(NS(=O)(=O)c2cccc(N(CCC(=O)O)CC3CC3)n2)ccc1C(F)(F)F [Compound 69, 3-((cyclopropylmethyl)(6-(N-(6-(5-fluoro-2-methylphenyl)-5-(trifluoromethyl)pyridin-2-yl)sulfamoyl)pyridin-2-yl)amino)propanoic Acid]
1390 |  | Cc1ccccc1-c1nc(NS(=O)(=O)c2cccc(N3CCCC(CCC(=O)O)C3)n2)ccc1C(F)(F)F (stereo not shown) [Compound 73, 3-(1-(6-(N-(6-(o-tolyl)-5-(trifluoromethyl)pyridin-2-yl)sulfamoyl)pyridin-2-yl)piperidin-3-yl)propanoic acid]
1090 |  | C=Cc1ccccc1-c1nc(NS(=O)(=O)c2cccc(N3CCCC(CCC(=O)O)C3)n2)ccc1C(F)(F)F (stereo not shown) [Compound 74, 3-(1-(6-(N-(5-(trifluoromethyl)-6-(2-vinylphenyl)pyridin-2-yl)sulfamoyl)pyridin-2-yl)piperidin-3-yl)propanoic Acid]
